Measured values as given in PubChem BioAssay (NCI).
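Following 48 hours of exposure in 96-well plates, responses at five concentrations were used to interpolate endpoints linearly. GI50 is the concentration that inhibits growth by half. The concentration for full growth arrest is given as TGI.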

How the values were obtained:
Experiment in all cases: growth of human tumour cells (NCI), 48 h
SN12C renal = test system: SN12C renal
DU-145 prostate = test system: DU-145 prostate
ACHN renal = test system: ACHN renal
OVCAR-3 ovarian = test system: OVCAR-3 ovarian
PC-3 prostate = test system: PC-3 prostate
MALME-3M melanoma = test system: MALME-3M melanoma
786-0 renal = test system: 786-0 renal
HL-60(TB) leukemia = test system: HL-60(TB) leukemia
MOLT-4 leukemia = test system: MOLT-4 leukemia
CCRF-CEM leukemia = test system: CCRF-CEM leukemia

| Structure (SMILES) | TGI (SN12C renal) | TGI (DU-145 prostate) | TGI (ACHN renal) | TGI (OVCAR-3 ovarian) | TGI (PC-3 prostate) | TGI (MALME-3M melanoma) | TGI (786-0 renal) | GI50 (HL-60(TB) leukemia) | TGI (HL-60(TB) leukemia) | GI50 (SN12C renal) | GI50 (DU-145 prostate) | GI50 (ACHN renal) | GI50 (OVCAR-3 ovarian) | GI50 (PC-3 prostate) | GI50 (786-0 renal) | GI50 (MOLT-4 leukemia) | TGI (MOLT-4 leukemia) | GI50 (CCRF-CEM leukemia) | TGI (CCRF-CEM leukemia) | GI50 (MALME-3M melanoma) |
| --- | --- | --- | --- | --- | --- | --- | --- | --- | --- | --- | --- | --- | --- | --- | --- | --- | --- | --- | --- | --- |
| C[C@]12C[C@H](O)[C@H]3[C@@H](CCC4=CC(=O)CC[C@@]43C)[C@@H]1CC[C@@H]2c1csc(-c2ccccc2)n1 | > 100 µM | > 100 µM | > 100 µM | > 100 µM | 20.3 µM | 97.3 µM | > 100 µM |  |  |  |  |  |  |  |  |  |  |  |  |  |
| COc1c(N2CCN(CN3C(=O)C(=Nc4ccc(S(=O)(=O)Nc5ncccn5)cc4)c4cc(Cl)ccc43)C(C)C2)c(F)cc2c(=O)c(C(=O)O)cn(C3CC3)c12 (configuration not stated) | 27.5 µM | > 50 µM | > 50 µM | > 50 µM | > 50 µM |  | > 50 µM | 16.6 µM | > 50 µM | 10.6 µM | 16.3 µM | 11.8 µM | 14.3 µM | 15 µM | 19.2 µM | 33.3 µM | > 50 µM |  |  |  |
| CCOC(=O)C1=C(C)NC(c2ccco2)=C(C#N)C1c1cccc([N+](=O)[O-])c1 (configuration not stated) | 19.7 µM | 4.02 µM | 45.7 µM | 0.0373 µM | 0.0554 µM | 23.6 µM | 13.5 µM |  |  | 0.0465 µM | 0.0316 µM |  | 0.0147 µM |  | 0.0104 µM | 0.0445 µM |  | 0.0186 µM | 32.4 µM |  |
| CC(=O)[CH-]C(=O)c1ccccc1.CC(=O)[CH-]C(=O)c1ccccc1.[O-]c1ccc2c(c1)OCO2.[O-]c1ccc2c(c1)OCO2.[Ti+4] | > 100 µM |  | > 100 µM | > 100 µM |  | 50.2 µM | 80.7 µM | 10.7 µM | 48 µM | 43.9 µM |  | 31.6 µM | 26.8 µM |  | 21.1 µM | 15.4 µM | 51.5 µM | 3.66 µM | 30.3 µM | 23.1 µM |
| COC(=O)C1CCc2nnc(-c3ccccc3)n21 (configuration not stated) | > 100 µM |  | > 100 µM | > 100 µM |  | > 100 µM | > 100 µM |  | > 100 µM |  |  |  |  |  |  |  | > 100 µM |  | > 100 µM |  |
| NC(=O)c1ccc(Cl)c([N+](=O)[O-])c1 | > 100 µM |  | > 100 µM | > 100 µM |  | > 100 µM | > 100 µM |  | > 100 µM |  |  |  |  |  |  |  | > 100 µM |  | > 100 µM |  |
| C[C@H]1C=C2C(=O)O[C@H]3CC[C@@H](C1)[C@@]23O | 6.76 µM |  | 17.2 µM | 16.9 µM |  | 20 µM | 12.2 µM |  | 4.55 µM |  |  |  |  |  |  |  | > 100 µM |  | 6.05 µM |  |
| CO[C@@]1(c2ccccc2)O[C@H]2OCCC2[C@H]1c1ccc(Cl)cc1 (some centres not stated) | > 100 µM |  | > 100 µM | 49.7 µM |  | 84.8 µM | > 100 µM |  |  |  |  |  |  |  |  |  | 92.7 µM |  |  |  |
| C=C1C[C@@H]2C[C@@H](C)CC(O)[C@]2(CCCN)C1O (some centres not stated) | > 100 µM |  | > 100 µM | > 100 µM |  | > 100 µM | > 100 µM |  | > 100 µM |  |  |  |  |  |  |  | > 100 µM |  | > 100 µM |  |
| CC(=O)[O-].N.N.N.N.[Co+3].[O-][Cl+3]([O-])([O-])[O-].[OH3+] | > 100 µM |  | > 100 µM | > 100 µM |  | > 100 µM | > 100 µM | > 100 µM | > 100 µM | > 100 µM |  | > 100 µM | > 100 µM |  | > 100 µM | > 100 µM | > 100 µM | > 100 µM | > 100 µM | > 100 µM |
| CC(=O)Oc1ccc2c(c1)C(=O)c1nc(C)c(C)nc1C2=O | > 100 µM |  | > 100 µM | 59.1 µM |  | 38 µM | > 96.5 µM |  | 56.4 µM |  |  |  |  |  |  |  | > 100 µM |  | > 100 µM |  |
| COC(=O)N/N=C(\C)CC(=O)Nc1ccc(Cl)cc1 |  |  |  | > 100 µM |  | > 100 µM | > 100 µM |  | > 100 µM |  |  |  |  |  |  |  | > 100 µM |  | > 100 µM |  |
| Cc1cccc2c1[nH]c(=O)c1c3ccccc3cn21 | 18.8 µM | 17.6 µM | 22.5 µM | 28.2 µM | 29.3 µM | 24.7 µM | 32.2 µM |  |  | 1.81 µM | 5.26 µM | 4.08 µM | 4.78 µM | 3.9 µM | 5.92 µM | 1.81 µM | 5.56 µM | 1.2 µM | 12.6 µM | 8.23 µM |
| c1ccc(OC2=NC3=S(S2)SC(Oc2ccccc2)=N3)cc1 | 40.8 µM |  | 42.5 µM | 28.6 µM |  | 41.7 µM | 30.6 µM |  | 42.5 µM |  |  |  |  |  |  |  | 31 µM |  | 28.9 µM |  |
| C[CH2][Sn]([CH2]C)([O]C(=O)c1ccc(F)cc1)[O]C(=O)c1ccc(F)cc1 | > 100 µM |  | 32.4 µM | > 82.2 µM |  | 34.2 µM | 35.1 µM | 60.5 µM | > 100 µM | 36 µM |  | 17.8 µM | > 48 µM |  | 18.8 µM | 26.7 µM | > 85.1 µM | 8.75 µM | 31.4 µM | 16.6 µM |
| COc1ccc([C@@H]2OC(=O)C3C2C(=O)O[C@H]3c2ccc(OC)c(OC)c2)cc1OC (some centres not stated) | > 100 µM |  | > 100 µM | > 100 µM |  | > 100 µM | > 100 µM |  | > 100 µM |  |  |  |  |  |  |  | > 100 µM |  | > 100 µM |  |
| CC1=CCCC2C(C=O)(C1)CC(C)C2(CO)CC/C(=C/CO)CO (configuration not stated) | > 100 µM |  | > 100 µM | > 100 µM |  | > 100 µM | > 100 µM |  |  |  |  |  |  |  |  |  | > 100 µM |  | > 100 µM |  |
| O=c1c2cc3ccccc3n2c(=O)c2cc3ccccc3n12 | > 100 µM |  | > 100 µM | > 100 µM |  | > 100 µM | > 100 µM |  | > 100 µM |  |  |  |  |  |  |  | > 100 µM |  | > 100 µM |  |
| N#CC1=C(N)NC(=O)NC12Nc1ccccc1N2 | > 100 µM | > 100 µM | > 100 µM | > 100 µM | > 100 µM | > 100 µM | > 100 µM |  |  | > 100 µM | > 100 µM | > 100 µM | > 100 µM | > 100 µM | > 100 µM | > 100 µM | > 100 µM |  |  | > 100 µM |
